In US10696689B2, “Somatostatin modulators and uses thereof” (CRINETICS PHARMACEUTICALS, INC., priority 2018, dated 2020):

Columns and labels:
[1] = target: human SST2 receptor (SSTR2) (Homo sapiens (Human), UniProt P30874); assay: cAMP assay: inhibition of cAMP via human SST2 receptor in CHO-K1 cells; format: cell-based; settings: CHO-K1 cells stably expressing human SSTR2, NKH477 stimulated
Description: (§1) General overview: All five SSTR subtypes are Gi coupled G-protein coupled receptors (GPCRs) that lead to decreases in intracellular cyclic AMP (cAMP) when activated by an agonist. Therefore, measurement of intracellular cAMP levels can be used to assess whether compounds of the invention are agonists of SSTR subtypes (John Kelly, Troy Stevens, W. Joseph Thompson, and Roland Seifert, Current Protocols in Pharmacology, 2005, 2.2.1-2.2). One example of an intracellular cAMP assay is described below.
(§2) Four days prior to the assay, 5,000 Chinese hamster ovary cells (CHO-K1, ATCC # CCL-61) stably expressing the human somatostatin receptor subtype 2 are plated in each well of a 96-well tissue culture-treated plate in Ham's F12 growth media (ThermoFisher #10-080-CM) supplemented with 10% donor bovine serum (Gemini Bio-Products #100-506), 100 U/mL penicillin; 100 ug/mL streptomycin; 2 mM L-glutamine (Gemini Bio-Products #400-110) and 0.2 mg/mL hygromycin B (GoldBio #31282-04-9). The cells are cultured at 37° C., 5% CO2 and 95% humidity. On the day of the assay, the media is aspirated and the cells are treated with 50 μL of 1.6 μM NKH477 (Sigma # N3290) plus various dilutions of compounds of the invention in assay buffer [1× Hank's Balanced Salt Solution (ThermoFisher # SH3058802), 0.5 mM HEPES pH 7.4, 0.1% bovine serum albumin, 0.2 mM 3-Isobutyl-1-methylxanthine (IBMX, VWR #200002-790)]. The cells are incubated for 20 minutes at 37° C. (the final concentration of the compounds of the invention are typically 0-10,000 nM). The cells are treated with 50 μL of lysis buffer (HRTF cAMP kit, Cisbio). The lysate is transferred to 384-well plates and cAMP detection and visualization antibodies are added and incubated for 1-24 hours at room temperature. The time-resolved fluorescent signal is read with a Tecan M1000Pro multiplate reader. The intracellular cAMP concentrations are calculated by regression to a standard curve and are plotted vs. the concentration of the compounds of the invention and the EC50 of the compounds are calculated using standard methods. All data manipulations are in GraphPad Prism v6.

[2] = system: hSSTR2 vs. hSSTR4; assay: Selectivity for inhibition of cAMP via hSSTR2 vs. hSSTR4; format: cell-based, human
Description: as §1, §2

human SST2 receptor (SSTR2), sequence (P30874 whole entry): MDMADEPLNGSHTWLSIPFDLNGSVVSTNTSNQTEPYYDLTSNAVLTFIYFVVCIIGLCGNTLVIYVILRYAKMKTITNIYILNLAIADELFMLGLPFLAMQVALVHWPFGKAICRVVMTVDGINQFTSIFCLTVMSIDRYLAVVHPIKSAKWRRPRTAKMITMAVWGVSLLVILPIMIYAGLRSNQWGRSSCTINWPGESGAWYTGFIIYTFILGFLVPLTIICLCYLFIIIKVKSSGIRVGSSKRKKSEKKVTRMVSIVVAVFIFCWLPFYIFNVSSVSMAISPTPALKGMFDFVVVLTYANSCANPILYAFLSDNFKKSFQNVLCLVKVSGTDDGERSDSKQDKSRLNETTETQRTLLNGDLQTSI

SMILES | EC50 [1] | hSST4/hSST2 (ratio) ([2]; Table C) | hSST4/hSST2 (ratio) ([2]; Table B)
Nc1ncc(-c2cc(F)cc(F)c2)c(N2CCC3OCCNC3C2)c1-c1nc2c(F)cc(F)cc2[nH]1 (centres unmarked) [Compound 3-2, 4-[(4αS,8αS)-octahydro-1H-pyrido[3,4-b][1,4]oxazin-6-yl]-3-(4,6-difluoro-1H-1,3-benzodiazol-2-yl)-5-(3,5-difluorophenyl)pyridin-2-amine] | 0.1 to 1 nM | – | –
COc1cc(F)cc2nc(-c3c(C(N)=O)ncc(-c4cc(C)cc(F)c4)c3N3CCC(N)CC3)[nH]c12 [Compound 2-3, 4-(4-aminopiperidin-1-yl)-3-(6-fluoro-4-methoxy-1H-1,3-benzodiazol-2-yl)-5-(3-fluoro-5-methylphenyl)pyridine-2-carboxamide] | 0.1 to 1 nM | – | –
CNc1ncc(-c2cccc(F)c2)c(N2CC[C@@H]3NCCO[C@H]3C2)c1-c1nc2c(OC)cc(C#N)cc2[nH]1 [Compound 3-12, 2-{4-[(4αS,8αS)-octahydro-1H-pyrido[3,4-b][1,4]oxazin-6-yl]-5-(3-fluorophenyl)-2-(methylamino)pyridin-3-yl}-4-methoxy-1H-1,3-benzodiazole-6-carbonitrile] | ≥ 1 nM | a (a = above 50,) | –
COC(=O)c1ncc(-c2cc(C)cc(F)c2)c(N2CCC(N)CC2)c1-c1nc2cc(F)cc(OC)c2[nH]1 [Compound 2-1, methyl 4-(4-aminopiperidin-1-yl)-3-(6-fluoro-4-methoxy-1H-1,3-benzodiazol-2-yl)-5-(3-fluoro-5-methylphenyl)pyridine-2-carboxylate] | 0.1 to 1 nM | – | d (d = between 1 and 2.5;)
CNc1ncc(-c2cc(F)cc(F)c2)c(N2CC[C@@H]3NCCO[C@H]3C2)c1-c1nc2c(F)cc(F)cc2[nH]1 [Compound 3-6, 4-[(4αS,8αS)-octahydro-1H-pyrido[3,4-b][1,4]oxazin-6-yl]-3-(4,6-difluoro-1H-1,3-benzodiazol-2-yl)-5-(3,5-difluorophenyl)-N-methylpyridin-2-amine] | 0.1 to 1 nM | – | –
COc1cc(F)cc2[nH]c(-c3c(N)ncc(-c4cccc(F)c4)c3N3CC[C@@H]4NCCO[C@H]4C3)nc12 [Compound 3-9, 4-[(4αS,8αS)-octahydro-1H-pyrido[3,4-b][1,4]oxazin-6-yl]-3-(6-fluoro-4-methoxy-1H-1,3-benzodiazol-2-yl)-5-(3-fluorophenyl)pyridin-2-amine] | 0.1 to 1 nM | c (c = between 2.5 and 15;) | –
COc1cc(F)cc2nc(-c3c(C#N)ncc(-c4cc(C)cc(F)c4)c3N3CCC(N)CC3)[nH]c12 [Compound 2-2, 4-(4-aminopiperidin-1-yl)-3-(6-fluoro-4-methoxy-1H-1,3-benzodiazol-2-yl)-5-(3-fluoro-5-methylphenyl)pyridine-2-carbonitrile] | 0.1 to 1 nM | – | –
CNc1ncc(-c2cc(F)cc(Cl)c2)c(N2CC[C@@H]3NCCO[C@H]3C2)c1-c1nc2c(OC)cc(F)cc2[nH]1 [Compound 3-13, 4-[(4αS,8αS)-octahydro-1H-pyrido[3,4-b][1,4]oxazin-6-yl]-5-(3-chloro-5-fluorophenyl)-3-(6-fluoro-4-methoxy-1H-1,3-benzodiazol-2-yl)-N-methylpyridin-2-amine] | 0.1 to 1 nM | a (a = above 50,) | –
COc1cc(C#N)cc2[nH]c(-c3c(N)ncc(-c4cc(F)cc(Cl)c4)c3N3CCC(N)CC3)nc12 [Compound 1-2, 2-[2-amino-4-(4-aminopiperidin-1-yl)-5-(3-chloro-5-fluorophenyl)pyridin-3-yl]-4-methoxy-1H-1,3-benzodiazole-6-carbonitrile] | 0.1 to 1 nM | – | –
COc1cc(C#N)cc2nc(-c3c(N(C)C)ncc(-c4cc(C)cc(F)c4)c3N3CCC(N)CC3)[nH]c12 [Compound 1-3, 2-[4-(4-aminopiperidin-1-yl)-2-(dimethylamino)-5-(3-fluoro-5-methylphenyl)pyridin-3-yl]-4-methoxy-1H-1,3-benzodiazole-6-carbonitrile] | ≥ 1 nM | – | –
CNc1ncc(-c2cccc(F)c2)c(N2CC[C@@H]3NCCO[C@H]3C2)c1-c1nc2c(OC)cc(F)cc2[nH]1 [Compound 3-10, 4-[(4αS,8αS)-octahydro-1H-pyrido[3,4-b][1,4]oxazin-6-yl]-3-(6-fluoro-4-methoxy-1H-1,3-benzodiazol-2-yl)-5-(3-fluorophenyl)-N-methylpyridin-2-amine] | 0.1 to 1 nM | a (a = above 50,) | –

Continued, in another order:

EC50 [1] | SMILES | hSST4/hSST2 (ratio) ([2]; Table C) | hSST4/hSST2 (ratio) ([2]; Table B)
< 0.1 nM | COc1cc(F)cc2[nH]c(-c3c(N)ncc(-c4cc(F)cc(Cl)c4)c3N3CC[C@@H]4OCCN[C@H]4C3)nc12 [Compound 3-17, 4-[(4αS,8αS)-octahydro-1H-pyrido[3,4-b][1,4]oxazin-6-yl]-5-(3-chloro-5-fluorophenyl)-3-(6-fluoro-4-methoxy-1H-1,3-benzodiazol-2-yl)pyridin-2-amine] | c (c = between 2.5 and 15;) | –
< 0.1 nM | CNc1ncc(-c2cc(C)cc(F)c2)c(N2CCC3OCCNC3C2)c1-c1nc2c(OC)cc(F)cc2[nH]1 (centres unmarked) [Compound 3-15, 4-[(4αS,8αS)-octahydro-1H-pyrido[3,4-b][1,4]oxazin-6-yl]-3-(6-fluoro-4-methoxy-1H-1,3-benzodiazol-2-yl)-5-(3-fluoro-5-methylphenyl)-N-methylpyridin-2-amine] | – | –
< 0.1 nM | COc1cc(C#N)cc2[nH]c(-c3c(N)ncc(-c4cc(C)cc(F)c4)c3N3CC[C@@H]4NCCO[C@H]4C3)nc12 [Compound 3-16, 2-{4-[(4αS,8αS)-octahydro-1H-pyrido[3,4-b][1,4]oxazin-6-yl]-2-amino-5-(3-fluoro-5-methylphenyl)pyridin-3-yl}-4-methoxy-1H-1,3-benzodiazole-6-carbonitrile] | – | –
< 0.1 nM | COc1cc(C#N)cc2[nH]c(-c3c(N)ncc(-c4cc(C)cc(F)c4)c3N3CCC(N)CC3)nc12 [Compound 1-1, 2-[2-amino-4-(4-aminopiperidin-1-yl)-5-(3-fluoro-5-methylphenyl)pyridin-3-yl]-4-methoxy-1H-1,3-benzodiazole-6-carbonitrile] | – | a (a = above 50,)
< 0.1 nM | COc1cc(F)cc(-c2cnc(N)c(-c3nc4c(F)cc(F)cc4[nH]3)c2N2CCC3OCCNC3C2)c1 (centres unmarked) [Compound 3-8, 4-[(4αS,8αS)-octahydro-1H-pyrido[3,4-b][1,4]oxazin-6-yl]-3-(4,6-difluoro-1H-1,3-benzodiazol-2-yl)-5-(3-fluoro-5-methoxyphenyl)pyridin-2-amine] | – | –
< 0.1 nM | Cc1cc(F)cc(-c2cnc(N)c(-c3nc4c(F)cc(F)cc4[nH]3)c2N2CC[C@@H]3NCCO[C@H]3C2)c1 [Compound 3-1, 4-[(4αS,8αS)-octahydro-1H-pyrido[3,4-b][1,4]oxazin-6-yl]-3-(4,6-difluoro-1H-1,3-benzodiazol-2-yl)-5-(3-fluoro-5-methylphenyl)pyridin-2-amine] | – | –
< 0.1 nM | COc1cc(F)cc2[nH]c(-c3c(N)ncc(-c4cc(C)cc(F)c4)c3N3CC[C@@H]4NCCO[C@H]4C3)nc12 [Compound 3-14, 4-[(4αS, 8αS)-octahydro-1H-pyrido[3,4-b][1,4]oxazin-6-yl]-3-(6-fluoro-4-methoxy-1H-1,3-benzodiazol-2-yl)-5-(3-fluoro-5-methylphenyl)pyridin-2-amine] | – | –
< 0.1 nM | Nc1ncc(-c2cc(F)cc(Cl)c2)c(N2CC[C@@H]3NCCO[C@H]3C2)c1-c1nc2c(F)cc(F)cc2[nH]1 [Compound 3-7, 4-[(4αS,8αS)-octahydro-1H-pyrido[3,4-b][1,4]oxazin-6-yl]-5-(3-chloro-5-fluorophenyl)-3-(4,6-difluoro-1H-1,3-benzodiazol-2-yl)pyridin-2-amine] | – | –
